“Also recorded” adds a separate entry of the source.
Tests used:
[1] = Peptide-Texas Red binding in solution, excitation and emission spectra; conditions: for changes in peak excitation or emission: concentrated peptide with 50 nM Texas Red; for peak emission shift / peak excitation shift: 10 μM peptide, 50 nM Texas Red, TBS, 1 hr RT
Protocol: FIGS. 5A and 5B. Peptide—Texas Red binding. Excitation and emission spectra. Peptides at the noted concentrations were incubated with Texas Red (50 nM), or without, in 0.6 ml of TBS for 1 hr at room temperature (RT). Samples were scanned on a spectrofluorimeter (SPEX Fluoromax (Jobin Yvon-SPEX Instruments Co.)). Excitation and excitation/emission peak shifts for PepTR401(10 μM)/Texas Red and PepTRS311 (10 μM)/Texas Red complexes, respectively (A), were reproducible in three independent experiments. The results of a single experiment are presented.
(§1) The above test only checks for bound dye that remains fluorescent at the wavelengths tested. Binding of fluorophore dyes to specific peptides might result in changes in the fluorescence spectra of bound dye versus the spectra of free dye. Or, one might observe an increase or quenching of fluorescence. We mixed concentrated peptide with 50 nM of the corresponding dye in solution and determined the excitation and emission spectra of the resulting mixture.
We attempted with these findings to obtain an affinity measurement for the higher affinity TRS311 peptide. Peptides in different concentrations (1.3-20 μM) were incubated with Texas Red (50 nM) in 0.6 ml of TBS buffer for 1 hr at RT. Excitation and emission spectra of samples were obtained by using spectrofluorimeter SPEX Fluoromax (Jobin Yvon-SPEX Instruments Co.) and DataMax software package. Peak positions were automatically calculated by software. List mode data was saved for other analyses.

[2] = Dye binding to peptide-coated cobalt Sepharose beads, fluorescence microscopy; conditions: 0.5 μM Texas Red in TBS, 1 hr, RT
Protocol: FIG. 6. Texas Red-specific peptide PepTR401 (Panel A), PepTRS311 (Panel B), PepTR406 (Panel C) and nonspecific PepControl (Panel D) (see peptide sequences in Table 4) were bound via His6 tag to cobalt ion-containing Sepharose beads. The peptide coated beats were washed and incubated with 0.5 micromolar Texas Red in TBS for 1 hour at room temperature followed by several washings of beads in order to remove unbound dye. Fluorescent and nonflourescent control beads were photographed on fluorescent microscope Axiophot (Zeiss) using Rhodamine Red/Texas Red filter with the same time exposure for every sample. All binding experiments were accomplished in three parallels and results of a single experiments are shown.
Peptides were bound to cobalt ion-coated Sepharose beads and the resultant peptide-coated beads were incubated with corresponding fluorophore dyes, washed, and visualized for dye binding. The same amounts of Texas Red-specific peptides PepTR401, PepTRS311, PepTR406 as well as nonspecific peptide PepControl (see Table 4) were bound via His6 tag to the TALON Metal Affinity Resin (Clontech) in TBS buffer essentially as described by manufacturer's protocol. Beads (5 μl) were washed twice with 0.5 ml TBS to remove unbound peptide and incubated with 0.5 μM Texas Red in 40 μl of TBS buffer for 1 hr at RT. Finally, the beads were washed three times with 0.3 ml TBS to remove unbound dye. Fluorescent and nonfluorescent control beads were photographed with 10-fold magnification on fluorescent microscope Axiophot (Zeiss) using Rhodamine Red/Texas Red filter with 5″ exposure.

[3] = Binding affinity of phage clones carrying SKVILFE-flanked fluorettes; conditions: phage clone, SKVILFE-flanked fluorette
[4] = Phage binding to Oregon Green 514 carrier beads, plaque assay of bound phage; conditions: for Kd: phage clone, Oregon Green 514 carrier beads
Protocol: (§2) These mutations may be important for increasing the overall affinity of the peptide fluorette-fluorophore interaction. We tested one of each of the phage from the secondary screens for increases in avidity (Table 3). PEG-purified TR401 phage, TRS311 phage or the amplified Ph.D.-12 phage display peptide library phage as a negative control (input 1.5×10^8-1.1×10^10 pfu with 2 to 5-fold increments) were incubated with 23.5 μl of BSA-blocked and washed Texas Red carrier beads in binding buffer (see above) in total volume 40 μl for 3 hr. Beads suspensions were centrifuged, the supernatants (unbound phage) were titrated and dissociation constants were measured via a standard linear Scatchard plot. For TR401 and TRS311 phage bound/unbound ratios were quite reliable (6.3-13.1 in the range of phage concentrations shown above). All binding experiments were performed in duplicate and titrations were performed in triplicate. […] For higher Kd, bound/unbound ratios became unreliable (=1).
(§3) Other PEG-purified phage (input 5×10^8-2.5×10^10 pfu with 2 to 5-fold increments) were bound to the respective fluorophore dye carriers essentially in the same manner as described above for Texas Red-specific phage. RhR401 and RhRS308, OG403 and OGS316, OG402 and FluS303 phage, were bound to the Rhodamine Red, Oregon Green 514 or Fluorescein carriers, respectively. Following binding the beads were quickly washed twice by 0.25 ml of TBS+0.1% Tween-20 and suspended in 10 ml TBS. 10 μl of suspension was mixed with ^−2×10^8 log-phase ER2537 cells and incubated 1 hr at 4° C. with slight shaking to allow phage adsorption. Several ten-fold dilutions of infected cells were mixed with noninfected ER2537 cells and plated in standard plaque assay (Sambrook et al., supra). All binding experiments and titrations were accomplished in duplicate. […] For all above phage pfu/particle ratio was in the range 0.4-0.5.

[5] = Phage-free fluorophore dye binding in solution (PEG precipitation, filter scan); conditions: vs unselected library phage
Excerpt: FIG. 3. Phage-fluorophore dye binding. Fluorophore dye-specific OG403, OG402, RhR401 and TR401 phage were bound to Oregon Green 514, Fluorescein, Rhodamine Red and Texas Red “free” dyes, respectively (see text). The normalized particle amounts of amplified Ph.D.-12 phage display peptide library (nonspecific phage) were bound in solution with the same dyes as controls. Phage-fluorophore dye complexes were precipitated three times by PEG to remove unbound dye and spotted to a nitrocellulose filter. The filter was scanned on the Storm 840 scanner (Molecular Dynamics). The presented data is from a single scan and image enhancements were done simultaneously on the complete set of dye binding results using NIH Image 1.59 software. Specific/nonspecific signal ratios were quantified by densitometry of spot images using NIH Image 1.59 software (see Materials and Methods for details). All binding experiments shown were completed in duplicate. Densitometry was carried out prior to contrast enhancement. Brightness and contrast values were modified to 50 and 65, respectively in Adobe Photoshop. Individual elements of the figure were arranged as a composite from the same original scan from which the binding ratios were determined.
Four activated derivatives of fluorophore dyes (see above) were quenched in 0.5M Tris-HCl, pH 8.7 and used as “free” dyes. Ten μl of PEG-purified and 300-fold concentrated phage TR401, RhR401, OG402, OG403 (1.3-1.8×10^12 phage particles; calculated from optical densities of the purified phage at 260 and 280 nm) in TBS+0.05% sodium azide buffer were separately mixed with an equal volume of 20 μM solution of the corresponding free dyes in the same buffer; mixtures were adjusted by Tween-20 to 0.1% and incubated for 3 hr. Phage-fluorophore dye complexes were precipitated three times by PEG-8000 in order to remove unbound dye and dissolved in 6.6 μl of TBS+0.05% sodium azide buffer. Finally, phage-fluorophore dye complexes (1 μl of each) were spotted to nitrocellulose filter and filter was scanned on the Storm 840 scanner (Molecular Dynamics) in Blue Fluorescence/Chemifluorescence mode with 200 μ pixel resolution. To determine nonspecific binding the normalized amounts of phage particles of amplified, unselected, and PEG-purified Ph.D.-12 phage display peptide library were separately incubated with the corresponding free dyes and treated in the same conditions. All binding experiments were accomplished in duplicate. Specific/nonspecific signal ratios were quantified by densitometry of spot images using “Measure” option of NIH Image 1.59 freeware package.

[6] = Cross-binding of Rhodamine Red-selected phage to the inappropriate dye carrier; conditions: RhR-4 phage on Texas Red carrier, vs nonspecific phage background
Excerpt: (§4) We tested the binding specificity and excluded the possibility that the TR401 and RhR401 phage were selected against the polymer linker moiety rather than a fluorophore dye moiety of the dye carriers. The TR-4 and RhR-4 phage were cross-bound to Rhbdamine Red and Texas Red carriers, respectively. […] Thus the TR401 and RhR401 fluorettes are specific by this comparison for their respective conjugated dyes, despite the similarity of the compound core ring structures. Second, they had affinity for the corresponding conjugated fluorophore dyes rather than only a polymer linker moiety of Texas Red and Rhodamine Red carriers or other chemical features of the carriers themselves.

[7] = Phage binding to Rhodamine Red carrier beads, plaque assay of bound phage; conditions: for Kd: phage clone, Rhodamine Red carrier beads
Protocol: as §2, §3

[8] = Peptide-Fluorescein binding in solution, excitation and emission spectra; conditions: peptide with 50 nM Fluorescein
Protocol: as §1

[9] = Dye binding to peptide-coated cobalt Sepharose beads, fluorescence microscopy; conditions: Oregon Green 514
[10] = as above; conditions: Fluorescein
[11] = Phage direct binding to Texas Red carrier beads, Scatchard plot; conditions: phage clone (5 pIII-fluorette copies, avidity), 3 hr
Protocol: as §2

[12] = Cross-binding of Texas Red-selected phage to the inappropriate dye carrier; conditions: TR-4 phage on Rhodamine Red carrier, vs nonspecific phage background
Excerpt: as §4

[13] = Phage binding to Fluorescein carrier beads, plaque assay of bound phage; conditions: for Kd: phage clone, Fluorescein carrier beads
Protocol: as §2, §3

[14] = Binding affinity of synthetic constrained peptides to Texas Red; conditions: for Kd: synthetic SKVILFE-flanked peptide; for fold more avid than linear TR401 and TRS311 peptides: synthetic constrained vs linear peptides

ASGSGASGSAGSGGGSAETVGGGHHHHHH [control peptide, reference compound]
changes in peak excitation or emission [1]: No detectable changes

DFLOWKLAROKPGGGSAETVGGGHHHHHH (DFLQWKLARQKPGGGSAETVGGGHHHHHH; fluorette) [PepTR406]
dye binding to peptide-coated beads [2]: did not bind
changes in peak excitation or emission [1]: No detectable changes

EPMARPWERKQDR [TRP527]
Kd [3]: > 5 nM

GNQKCLQHNRCST [TRP518]
Kd [3]: > 5 nM

GTLSATRPYGRQW [TRP541]
Kd [3]: > 5 nM

HEWEYYWDWTAW [OGS316]
Affinity increase (fold) ([4]; mutant fluorette phage vs parental OG403 phage): 2.7 fold
Kd [4]: 2.4 nM

HGWDYYWDWTAW [OG403]
Kd [4]: 6.4 nM
phage binding of free fluorophore dye in solution ([5]; free Oregon Green 514, 3 hr): specifically bound

IPHPPMYWTRVF [RhR401]
phage binding of free fluorophore dye in solution ([5]; free Rhodamine Red, 3 hr): specifically bound
binding specificity, cross-binding to inappropriate dye carrier [6]: specific
Kd [7]: 23 nM

IPHRPMYWTPVF [RhRS308]
Affinity increase (fold) ([7]; mutant fluorette phage vs parental RhR401 phage): not even marginally improved; also recorded: no increase
Kd [7]: 21.5 nM

KHVOYWTOMFYSGGGSAETVGGGHHHHHH (KHVQYWTQMFYSGGGSAETVGGGHHHHHH; fluorette) [PepTR401]
shift in Fluorescein excitation or emission spectra [8]: no shift
dye binding to peptide-coated beads [9]: bound to neither Oregon Green 514 nor Fluorescein
dye binding to peptide-coated beads [10]: bound to neither Oregon Green 514 nor Fluorescein
dye binding to peptide-coated beads [2]: significant binding
peak emission shift [1]: no emission shift change
peak excitation shift [1]: +1.9 nm

KHVQYWTQMFYS [TR401]
Kd [11]: 0.27 nM
phage binding of free fluorophore dye in solution ([5]; free Texas Red, 3 hr): specifically bound
binding specificity, cross-binding to inappropriate dye carrier [12]: specific

KPVOYWTOMFYTGGGSAETVGGGHHHHHH (KPVQYWTQMFYTGGGSAETVGGGHHHHHH; fluorette) [PepTRS311]
dye binding to peptide-coated beads [9]: bound to neither Oregon Green 514 nor Fluorescein
dye binding to peptide-coated beads [10]: bound to neither Oregon Green 514 nor Fluorescein
dye binding to peptide-coated beads [2]: significant binding
peak emission shift [1]: 1.4 nm
peak excitation shift [1]: ~+2.8 nm
Kd ([1]; calculated roughly from peak shifts, peptide 1.3-20 μM, Texas Red 50 nM, read-out: affinity of the peptide for the fluorophore): 100 to 500 nM
change in peak excitation position on reducing peptide concentration ([1]; peptide from 10 μM to 1.3 μM, Texas Red 50 nM): reduced slightly, but not completely

KPVQYWTQMFYT [TRS311]
Kd [11]: 0.09 nM

RTIWEPKEASNHT [TRP501]
Kd [3]: 0.08 nM

RWTWEPISE [TRP512]
Kd [3]: 0.025 nM

SQTWSFPEH [TRP526]
Kd [3]: > 5 nM

WSKMGHTVT [TRP505]
Kd [3]: > 5 nM

YPNDFEWWEYYF [OG402]
phage binding of free fluorophore dye in solution ([5]; free Fluorescein, 3 hr): specifically bound
Kd [13]: 17.4 nM

YPNEFDWWDYYY [FluS303]
Affinity increase (fold) ([13]; mutant fluorette phage vs parental OG402 phage): 6.5 fold
Kd [13]: 2.7 nM

synthetic SKVILFE-flanked Texas Red-specific peptide with His6 tag (SEQ ID NO:120) (GGGSKVILFEGPAGRTIWEPKEASNHTGAPGSKVILFEGGPGHHHHHH) [TRP501 peptide]
Kd [14]: ~200 nM
fold more avid than linear TR401 and TRS311 peptides [14]: ≈ 8 fold

synthetic SKVILFE-flanked Texas Red-specific peptide with His6 tag (SEQ ID NO:121) (GGGSKVILFEGPAGRWTWEPISEGAPGSKVILFEGGPGHHHHHH) [TRP512 peptide]
Kd [14]: ~10 nM
fold more avid than linear TR401 and TRS311 peptides [14]: ≈ 160 fold

— patent publication US6747135B1, “Fluorescent dye binding peptides” (The Board of Trustees for the Leland Stanford Junior …, priority 1998, dated 2004)
